Measured values published in ChEMBL document CHEMBL1131861, “Antitumor agents 200. Cytotoxicity of naturally occurring resveratrol oligomers and their acetate derivatives” (1999).
≈ marks a conversion by molar mass, not a printed value. Calls of active or inactive are those of the source. No cut-off for these calls is given here.

How the values were obtained:
[1] = tested on: 1A9; test: Cytotoxicity against human ovarian cancer (1A9) cell lines.; type: functional; conditions: read-out: ED50 (the source's name)
[2] = tested on: A549; test: Cytotoxicity against human lung carcinoma (A549) cell lines; Not active; type: functional, cell-based
[3] = tested on: CAKI-1; test: Cytotoxicity against human renal cancer(CAKI-1) cell lines; type: functional; conditions: read-out: ED50 (the source's name)
[4] = tested on: HCT-8; test: Cytotoxicity against human ileocecal carcinoma (HCT-8) cell lines.; type: functional; conditions: read-out: ED50 (the source's name)
[5] = tested on: KB; test: Cytotoxicity against human epidermoid carcinoma of the nasopharynx(KB) cell lines.; type: functional; conditions: read-out: ED50 (the source's name)
[6] = tested on: MCF7; test: Cytotoxicity against human breast cancer(MCF-7) cell lines.; type: functional; conditions: read-out: ED50 (the source's name)
[7] = tested on: A549; test: Cytotoxicity against human lung carcinoma (A549) cell lines; type: functional; conditions: read-out: ED50 (the source's name)
[8] = tested on: CAKI-1; test: Cytotoxicity against human renal cancer(CAKI-1) cell lines; […]; type: functional, cell-based
[9] = tested on: SAOS-2; test: Cytotoxicity against human osteosarcoma (SaOS-2) cell lines.; type: functional; conditions: read-out: ED50 (the source's name)
[10] = tested on: SAOS-2; test: Percentage inhibition of human osteosarcoma (SaOS-2) cell lines.; type: functional
[11] = tested on: HCT-8; test: Percentage inhibition human ileocecal carcinoma (HCT-8) cell lines.; type: functional
[12] = tested on: MCF7; test: Percentage inhibition of human breast cancer(MCF-7) cell lines.; type: functional
[13] = tested on: CAKI-1; test: Percentage inhibition of human renal cancer(CAKI-1) cell lines; type: functional
[14] = tested on: A549; test: Percentage inhibition of human lung carcinoma (A549) cell lines; type: functional
[15] = tested on: 1A9; test: Percentage inhibition of human ovarian cancer (1A9) cell lines.; type: functional
[16] = tested on: KB; test: Percentage inhibition of human epidermoid carcinoma of the nasopharynx(KB) cell lines.; type: functional

CC(=O)Oc1ccc([C@H]2c3c(OC(C)=O)cc(OC(C)=O)cc3[C@H]3c4c(cc(OC(C)=O)cc4[C@@H]2OC(C)=O)O[C@@H]3c2ccc(OC(C)=O)cc2)cc1
EC50 [1]: 0.7 µg/mL (≈ 0.969 µM) | ED50 [2]: inactive | EC50 [3]: 4 µg/mL (≈ 5.53 µM) | EC50 [4]: 4.1 µg/mL (≈ 5.67 µM) | EC50 [5]: 0.6 µg/mL (≈ 0.83 µM) | EC50 [6]: 2 µg/mL (≈ 2.77 µM)

Oc1ccc([C@@H]2c3c(O)cc(O)cc3[C@@H]3c4c(cc(O)cc4[C@H]2[C@@H]2c4cc(O)cc5c4[C@@H](c4cc(O)cc(O)c4[C@H]2c2ccc(O)cc2)[C@H](c2ccc(O)cc2)O5)O[C@H]3c2ccc(O)cc2)cc1
EC50 [1]: 7.8 µg/mL (≈ 8.6 µM) | EC50 [7]: 4.8 µg/mL (≈ 5.29 µM) | ED50 [8]: inactive | EC50 [5]: 1.2 µg/mL (≈ 1.32 µM) | EC50 [6]: 4.2 µg/mL (≈ 4.63 µM) | EC50 [9]: > 20 µg/mL | Inhibition [10]: 41%

CC(=O)Oc1ccc(/C=C/c2cc(OC(C)=O)cc3c2[C@H](c2cc(OC(C)=O)cc(OC(C)=O)c2)[C@@H](c2ccc(OC(C)=O)cc2)O3)cc1
EC50 [1]: 5.8 µg/mL (≈ 8.73 µM) | EC50 [7]: 20 µg/mL (≈ 30.1 µM) | ED50 [8]: inactive | EC50 [5]: 7.5 µg/mL (≈ 11.3 µM) | EC50 [6]: 4 µg/mL (≈ 6.02 µM) | EC50 [9]: 7.5 µg/mL (≈ 11.3 µM)

CC(=O)Oc1ccc([C@@H]2c3c(OC(C)=O)cc(OC(C)=O)cc3[C@@H]3c4c(OC(C)=O)cc(OC(C)=O)cc4C2[C@H]3c2ccc(OC(C)=O)cc2)cc1
EC50 [1]: 6 µg/mL (≈ 8.49 µM) | ED50 [2]: inactive | EC50 [3]: > 10 µg/mL | EC50 [4]: > 10 µg/mL | Inhibition [11]: 36% | EC50 [5]: 3 µg/mL (≈ 4.25 µM) | EC50 [6]: > 10 µg/mL | Inhibition [12]: 43% | Inhibition [13]: 21%

CC(=O)Oc1ccc([C@@H]2c3c(OC(C)=O)cc(OC(C)=O)cc3[C@H]3[C@H](c4ccc(OC(C)=O)cc4)c4c(OC(C)=O)cc(OC(C)=O)cc4[C@@H]23)cc1
EC50 [1]: 3.2 µg/mL (≈ 4.53 µM) | ED50 [2]: inactive | EC50 [3]: 8 µg/mL (≈ 11.3 µM) | EC50 [4]: 8 µg/mL (≈ 11.3 µM) | EC50 [5]: 1.6 µg/mL (≈ 2.26 µM) | EC50 [6]: 7.4 µg/mL (≈ 10.5 µM)

Oc1ccc([C@H]2c3c(O)cc(O)cc3[C@H]3c4c(cc(O)cc4[C@@H]2O)O[C@@H]3c2ccc(O)cc2)cc1 [AMPELOPSIN A]
EC50 [1]: > 20 µg/mL | Inhibition [14]: 7% | EC50 [7]: > 20 µg/mL | EC50 [3]: > 20 µg/mL | EC50 [5]: > 20 µg/mL | EC50 [6]: > 20 µg/mL | Inhibition [12]: 10% | EC50 [9]: > 20 µg/mL | Inhibition [10]: 8% | Inhibition [15]: 32% | Inhibition [13]: 38% | Inhibition [16]: 38%
